Assay results published in patent US20100331298A1, “Carboxamide Compounds and Their Use” (CytoPathfinder, Inc., priority 2007, published 2010).
Structures can show the parent of a compound that is named as a salt.

Target: T1, CCR2b (Homo sapiens, UniProt P41597)
T1 construct: host or cells: AequoScreen CCR2b cells
T1 sequence (P41597 1-360 isoform P41597-2): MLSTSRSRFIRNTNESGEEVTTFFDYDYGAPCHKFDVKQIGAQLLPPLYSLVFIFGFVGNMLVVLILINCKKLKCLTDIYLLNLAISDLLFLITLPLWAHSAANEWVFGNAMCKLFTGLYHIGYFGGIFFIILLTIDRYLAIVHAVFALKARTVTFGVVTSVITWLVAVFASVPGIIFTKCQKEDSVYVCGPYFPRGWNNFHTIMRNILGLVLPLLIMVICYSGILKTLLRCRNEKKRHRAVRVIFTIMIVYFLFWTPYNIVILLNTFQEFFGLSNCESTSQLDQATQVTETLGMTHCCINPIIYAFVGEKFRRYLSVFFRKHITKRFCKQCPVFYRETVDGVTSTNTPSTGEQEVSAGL
Assay: AequoScreen assay, Ca++ flux (antagonist mode against reference agonist MCP-1)
Assay type: cell-based
Conditions: AequoScreen CCR2b (FAST-060A) cells; inhibition of reference agonist MCP-1 at its EC80
Procedure: The biological activity of the compounds described herein can be evaluated using assays known in the art, such as the AequoScreen™ assay.
AequoScreen™ CCR2b (FAST-060A) cells grown to mid-log phase in culture media without antibiotics are detached with PBS-EDTA, centrifuged and resuspended in assay buffer (DMEM/HAM's F12 with HEPES, without phenol red+0.1% BSA protease free) at a concentration of 1×10^6 cells/mL. Cells are incubated at room temperature for at least 4 hours with coelenterazine h. Dose response curves are performed before testing. The reference agonist is MCP-1.
For agonist testing, 50 μL of cell suspension is mixed with 50 μL of test compound in a 96-well plate. The resulting emission of light is recorded using a Hamamatsu Functional Drug Screening System 6000 (FDSS 6000).
Following an incubation of 15 minutes after the first injection, 100 μL of the resulting cell suspension containing the test compound is mixed with 100 μL of the reference agonist in the 96 well test plate. The resulting emission of light is recorded using the same luminometer as for agonist testing.
To standardize the emission of recorded light (determination of the “100% signal”) across plates and across different experiments, some of the wells contained 100 μM digitonin, a saturating concentration of ATP (20 μM) and a concentration of reference agonist equivalent to the EC50 obtained during test validation.
Agonist activity of a test compound can be expressed as a percentage of the activity of the reference agonist at its EC100 concentration. Antagonist activity of a test compound can be expressed as a percentage of the inhibition of reference agonist activity at its EC80) concentration.

| IC50 [µM] | Molecule |
| --- | --- |
| > 1 | Cn1c(=O)ccc2ccc(CN3CCC(C(=O)NCc4cc(C(F)(F)F)cc(C(F)(F)F)c4)(C4CC4)CC3)cc21 [Example 3, N-(3,5-Bis(trifluoromethyl)benzyl)-4-cyclopropyl-1-((1-methyl-2-oxo-1,2-dihydroquinolin-7-yl)methyl)piperidine-4-carboxamide] |
| > 1 | O=C1COc2ccc(CN3CCC(CC4CC4)(C(=O)NCc4cc(C(F)(F)F)cc(C(F)(F)F)c4)CC3)cc2N1 [Example 6, N-(3,5-Bis(trifluoromethyl)benzyl)-4-(cyclopropylmethyl)-1-((3-oxo-3,4-dihydro-2H-benzo[b][1,4]oxazin-6-yl)methyl)piperidine-4-carboxamide] |
| < 0.2 | Cn1c(=O)ccc2ccc(CN3CCC(CC4CC4)(C(=O)NCc4cc(C(F)(F)F)cc(C(F)(F)F)c4)C3)cc21 (stereo not drawn) [Example 20, N-(3,5-Bis(trifluoromethyl)benzyl)-3-(cyclopropylmethyl)-1-((1-methyl-2-oxo-1,2-dihydroquinolin-7-yl)methyl)pyrrolidine-3-carboxamide] |
| < 0.2 | Cn1c(=O)ccc2ccc(CN3CCC(CC4CC4)(C(=O)NCc4cc(C(F)(F)F)cc(C(F)(F)F)c4)CC3)cc21 [Example 1, N-(3,5-Bis(trifluoromethyl)benzyl)-4-(cyclopropylmethyl)-1-((1-methyl-2-oxo-1,2-dihydroquinolin-7-yl)methyl)piperidine-4-carboxamide] |
| 0.2 to 1 | O=C1COc2ccc(CN3CCC(CC4CC4)(C(=O)NCc4cc(C(F)(F)F)cc(C(F)(F)F)c4)C3)cc2N1 (stereo not drawn) [Example 22, N-(3,5-Bis(trifluoromethyl)benzyl)-3-(cyclopropylmethyl)-1-((3-oxo-3,4-dihydro-2H-benzo[b][1,4]oxazin-6-yl)methyl)pyrrolidine-3-carboxamide] |
| 0.2 to 1 | O=C(NCc1cc(C(F)(F)F)cc(C(F)(F)F)c1)C1(CC2CC2)CCN(Cc2cccc3c(=O)[nH]ccc23)CC1 [Example 9, N-(3,5-Bis(trifluoromethyl)benzyl)-4-(cyclopropylmethyl)-1-((1-oxo-1,2-dihydroisoquinolin-5-yl)methyl)piperidine-4-carboxamide] |
| < 0.2 | O=C(NCc1cc(C(F)(F)F)cc(C(F)(F)F)c1)C1(CC2CC2)CCN(Cc2ccc3[nH]ncc3c2)C1 (stereo not drawn) [Example 21, 1-((1H-Indazol-5-yl)methyl)-N-(3,5-bis(trifluoromethyl)benzyl)-3-(cyclopro-pylmethyl)pyrrolidine-3-carboxamide dihydrochloride] |
| 0.2 to 1 | COCC1(C(=O)N2CCN(c3cc(C(F)(F)F)ccn3)CC2)CCN(Cc2ccc3oc(=O)n(C)c3c2)C1 (stereo not drawn) [Example 29, 5-((3-(Methoxymethyl)-3-(4-(4-(trifluoromethyl)pyridin-2-yl)piperazine-1-carbonyl)pyrrolidin-1-yl)methyl)-3-methylbenzo[d]oxazol-2(3H)-one] |
| < 0.2 | Cn1c(=O)ccc2ccc(CN3CCC(CC4CC4)(C(=O)NCc4cc(C#N)cc(C(F)(F)F)c4)C3)cc21 (stereo not drawn) [Example 23, N-(3-Cyano-5-(trifluoromethyl)benzyl)-3-(cyclopropylmethyl)-1-((1-methyl-2-oxo-1,2-dihydroquinolin-7-yl)methyl)pyrrolidine-3-carboxamide TFA salt] |
| > 1 | O=C1COc2ccc(CCN3CCC(CC4CC4)(C(=O)NCc4cc(C(F)(F)F)cc(C(F)(F)F)c4)CC3)cc2N1 [Example 10, N-(3,5-Bis(trifluoromethyl)benzyl)-4-(cyclopropylmethyl)-1-(2-(3-oxo-3,4-dihydro-2H-benzo[b][1,4]oxazin-6-yl)ethyl)piperidine-4-carboxamide] |
| 0.2 to 1 | Cn1c(=O)oc2ccc(CN3CCC(CC4CC4)(C(=O)NCc4cc(C(F)(F)F)cc(C(F)(F)F)c4)CC3)cc21 [Example 26, N-(3,5-Bis(trifluoromethyl)benzyl)-4-(cyclopropylmethyl)-1-((3-methyl-2-oxo-2,3-dihydrobenzo[d]oxazol-5-yl)methyl)piperidine-4-carboxamide] |
| 0.2 to 1 | CN1C(=O)COc2ccc(CN3CCC(CC4CC4)(C(=O)NCc4cc(C(F)(F)F)cc(C(F)(F)F)c4)CC3)cc21 [Example 27, N-(3,5-Bis(trifluoromethyl)benzyl)-4-(cyclopropylmethyl)-1-((4-methyl-3-oxo-3,4-dihydro-2H-benzo[b][1,4]oxazin-6-yl)methyl)piperidine-4-carboxamide] |
| > 1 | O=C(NCc1cc(C(F)(F)F)cc(C(F)(F)F)c1)C1(CC2CC2)CCN(Cc2ccc3ccc(=O)[nH]c3c2)CC1 [Example 11, N-(3,5-Bis(trifluoromethyl)benzyl)-4-(cyclopropylmethyl)-1-((2-oxo-1,2-dihydroquinolin-7-yl)methyl)piperidine-4-carboxamide] |
| > 1 | CC(C)CC1(C(=O)NCc2cc(C(F)(F)F)cc(C(F)(F)F)c2)CCN(Cc2ccc3c(c2)OCCN3C)CC1 [Example 17, N-(3,5-Bis(trifluoromethyl)benzyl)-4-isobutyl-1-((4-methyl-3,4-dihydro-2H-benzo[b][1,4]oxazin-7-yl)methyl)piperidine-4-carboxamide] |
| < 0.2 | Cn1c(=O)oc2ccc(CN3CCC(CC4CC4)(C(=O)NCc4cc(C#N)cc(C(F)(F)F)c4)C3)cc21 (stereo not drawn) [Example 24, N-(3-Cyano-5-(trifluoromethyl)benzyl)-3-(cyclopropylmethyl)-1-((3-methyl-2-oxo-2,3-dihydrobenzo[d]oxazol-5-yl)methyl)pyrrolidine-3-carboxamide HCl salt] |
| > 1 | O=C(NCc1cc(C(F)(F)F)cc(C(F)(F)F)c1)C1(CC2CC2)CCN(Cc2ccc3cc[nH]c(=O)c3c2)CC1 [Example 8, N-(3,5-Bis(trifluoromethyl)benzyl)-4-(cyclopropylmethyl)-1-((1-oxo-1,2-dihydroisoquinolin-7-yl)methyl)piperidine-4-carboxamide] |
| > 1 | CC(C)CC1(C(=O)NCc2cc(C(F)(F)F)cc(C(F)(F)F)c2)CCN(Cc2ccc3c(c2)nnn3C)CC1 [Example 18, N-(3,5-Bis(trifluoromethyl)benzyl)-4-isobutyl-1-((1-methyl-1H-benzo[d][1,2,3]triazol-5-yl)methyl)piperidine-4-carboxamide] |
| 0.2 to 1 | COCC1(C(=O)N2CC(c3cc(C(F)(F)F)ccn3)C2)CCN(Cc2ccc3oc(=O)n(C)c3c2)C1 (stereo not drawn) [Example 28, 5-((3-(Methoxymethyl)-3-(3-(4-(trifluoromethyl)pyridin-2-yl)azetidine-1-carbonyl)pyrrolidin-1-yl)methyl)-3-methylbenzo[d]oxazol-2(3H)-one] |
| > 1 | O=C1COc2ccc(C(O)CN3CCC(CC4CC4)(C(=O)NCc4cc(C(F)(F)F)cc(C(F)(F)F)c4)CC3)cc2N1 (stereo not drawn) [Example 5, N-(3,5-Bis(trifluoromethyl)benzyl)-4-(cyclopropylmethyl)-1-(2-hydroxy-2-(3-oxo-3,4-dihydro-2H-benzo[b][1,4]oxazin-6-yl)ethyl)piperidine-4-carboxamide] |
| > 1 | O=C(NCc1cc(C(F)(F)F)cc(C(F)(F)F)c1)C1(CC2CC2)CCN(Cc2ccc3nc[nH]c3c2)CC1 [Example 19, 1-((1H-Benzo[d]imidazol-6-yl)methyl)-N-(3,5-bis(trifluoromethyl)benzyl)-4-(cyclopropylmethyl)piperidine-4-carboxamide] |

| Molecule | IC50 [µM] |
| --- | --- |
| N-(3,5-Bis(trifluoromethyl)benzyl)-4-(cyclopropylmethyl)-1-((3-methyl-2-oxo-2,3-dihydrobenzo[d]thiazol-6-yl)methyl)piperidine-4-carboxamide TFA salt [Example 25] | < 0.2 |
